The structures appear in SMILES notation. Some results are limits rather than exact numbers.

For 91 molecules, melting point results are on record in a melting point compilation (Tetko et al.; mined from patent text by program, amines drawn as free bases though some values may be those of a salt).

As a reminder, the melting point is the temperature, or range, at which the solid turns liquid. `CC[C@@H](NC(=O)N1CC(=O)NC[C@H](Cc2cc(Cl)ccc2OC)C1=O)c1ccc(C(=O)O)c(N)c1` registered a melting point of 139 to 140 °C.

Regarding `CC(C)OC1OC(=O)CC(C)(C)C1O` (stereo unspecified), the melting point turned out to be 50 °C.

`COc1cccc(CN2CCCCc3cc(CN(O)C(N)=O)ccc32)c1` gave a melting point of 38 to 42 °C.

`CC(=O)Nc1ncc(/C=C/c2ncc(C(C)(C)C)o2)s1` showed a melting point of 275 °C.

The molecule `CCOC1(C(N)=O)c2ccccc2S(=O)(=O)N1Cc1ccc(Br)cc1F` (stereo unspecified) returned a melting point of 175 to 177 °C.

In the case of `CC(=Cc1cc([N+](=O)[O-])ccc1Cl)C(=O)O`, the melting point lay in the range of 228 to 230 °C.

Regarding `O=[N+]([O-])c1cccc2c(Cl)ccnc12`, the melting point lay within 144 to 146 °C.

For `Clc1cccc(Cl)c1CSCc1c(Cl)cccc1Cl`, the melting point lay in the range of 128 to 130 °C.

The molecule `CCOC(=O)c1oc2cc(SC(=O)N(C)C)ccc2c1C` displayed a melting point of 112 to 114 °C.

In turn, `N#Cc1nn(-c2c(Cl)cc(C(F)(F)F)cc2Cl)c(N)c1OC(F)F` returned a melting point of 152 to 154 °C.

The molecule `CCOC(=O)c1c(N2CCN(C(=O)c3ccco3)CC2)c2cc(F)cnc2n(CC(=O)c2ccccc2)c1=O` had a melting point of 134 °C.

`CC(C)c1cccc(C(C)C)c1NC(=O)CN1CCN(CCSc2nc3ccccc3s2)CC1` returned a melting point of 170 to 171 °C.

For `O=S(CCc1ccccc1)CCc1ccccc1`, the melting point lay in the range of 70 to 71 °C.

Regarding `Cc1cc(-c2cnn3c(C(F)(F)F)cc(-c4ccc(C(F)(F)F)cc4)nc23)ccn1`, the melting point stood at 243 °C.

Molecule `Cc1c(Br)nc(Nc2ccc(C#N)cc2)c(=O)n1C` gave a melting point of 254 to 255 °C.

Take `O=C(Cl)c1c(Cl)ccc2c1OCCO2`: the melting point is 50 °C.

With `Nc1ccc(N2CCN(Cc3ccccc3)CC2)cc1`, the melting point was 137 to 138 °C.

`CCN1C(=O)C(=C(C)O)SC1=S` displayed a melting point of 93 °C.

Consider `O=C(NCCNc1c(Cl)cncc1Cl)C1CCN(c2c(Cl)cncc2Cl)CC1`, for which the melting point is 157 to 159 °C.

The molecule `FC(F)(F)Sc1ncn(-c2c(Cl)cc(C(F)(F)F)cc2Cl)c1Br` yielded a melting point of 87.5 °C.

With `CC(CCCC(C)(C)C)C1CCC2C3C(=O)C=C4CC(O)CCC4(C)C3CCC12C` (stereo unspecified), the melting point fell in the range of 176 to 178 °C.

In the case of `C=CCOc1ncc(F)c(O)n1`, the melting point was 138 to 141 °C.

As to `CCCCCCCCCCCCNC(=S)NCCCC`, the melting point was in the range of 49 to 55 °C.

Regarding `CCC(Nc1ccc(Br)cc1)n1nnc2ccccc21` (stereo unspecified), the melting point was determined as 132 °C.

Consider `Cc1cc(C)c(S(=O)(=O)NCC2CCN(S(=O)(=O)c3c(C)cc(C)cc3C)CC2)c(C)c1`, for which the melting point is 202 to 204 °C.

`O=C(O)CNC=C(Nc1cc(Cl)cc(Cl)c1)[N+](=O)[O-]` had a melting point of 207 °C.

The molecule `Clc1ccc(-c2nc3cc(Cl)ccc3o2)cc1` displayed a melting point of 178 to 183 °C.

For `Nc1ccc2ncnc(Nc3cccc(Cl)c3)c2c1`, the melting point is > 150 °C.

`COc1ccc(N2CCOCC2)c2sc(C(=O)NCC(=O)c3ccc4c(c3)OCCO4)nc12`: the melting point was 175 °C.

Take `CCOC(=O)C(=CNc1ccc(F)c(Cl)c1)C(=O)OCC`: the melting point was in the range of 71.5 to 72.5 °C.

In the case of `CCOC(=O)CCN1CCN(C2=Nc3ccccc3Cc3ccccc32)CC1`, the melting point lay within 133 to 134 °C.

With `CCOc1ccc(-c2c(Cl)c(CN3C(=O)CCC3=O)nc3sc4c(c23)CCN(C(C)=O)C4)cc1`, the melting point lay within 260 to 262 °C.

Consider `COCOc1ccc(C(=O)O)c(OCc2ccc(Cl)cc2Cl)c1C`, for which the melting point came out at 174 °C.

In turn, `Cc1cccc(C#N)c1[N+](=O)[O-]` came in with a melting point of 74.5 to 77 °C.

As for `CCCCCCCCCCCCCCOCC(CO)(CO)COCCCCCCCCCCCCCC`, the melting point was in the range of 63 to 64 °C.

As for `O=C(C(=O)N1CCCCC1)N1CCCCC1`, the melting point lay within 88 to 90 °C.

In the case of `Cc1cc2[nH]ncc2cc1NC1=NCCS1`, the melting point is 218 to 221 °C.

In the case of `CC(C)S(=O)(=O)NC[C@@H](C)c1ccc(-c2ccc3c(c2)CC(=O)N3)cc1`, the melting point lay within 170 to 171 °C.

`Cc1ccc(NC(=O)c2cccc(N(C)C)c2)cc1NC(=O)c1cccc(NS(C)(=O)=O)c1`: the melting point was in the range of 239 to 240 °C.

The molecule `COc1ccc(SC#N)c([N+](=O)[O-])c1` came in with a melting point of 127 to 128 °C.

As to `COc1ccc2c(c1O)CN(C)C(=O)C2c1cc(OC)c(OC)c(OC)c1` (single isomer, unassigned; (+)), the melting point lay within 193 to 196 °C.

On to `COc1ccc(/C=C/C(=O)c2cccc(O)c2)cc1OC`, for which the melting point lay in the range of 138 to 139 °C.

`CC(n1cnc2cc(-c3ccc(C4=NCCO4)cc3)sc2c1=O)C(O)(Cn1cncn1)c1ccc(F)cc1F` (stereo unspecified) registered a melting point of 235 to 236 °C.

With `COc1cc(C(=O)NC2CCN(CC(F)(F)F)CC2)ccc1Nc1ncc2c(n1)N(C1CCCCC1)CC(F)(F)C(=O)N2C`, the melting point was in the range of 213 to 215 °C.

In turn, `COC(=O)c1cc(Cl)cc(C(F)(F)F)n1` came in with a melting point of 62 to 63 °C.

Consider `O=C1C[C@H]2CN(C(=O)c3ccc(NC(=O)c4ccccc4-c4ccccc4)cc3)c3ccccc3C(=O)N2C1`, for which the melting point was 159 to 169 °C.

Consider `COCCOCn1c2ccccc2c2c(C)c(C(=O)OC)sc21`, for which the melting point was in the range of 85.4 to 86 °C.

For `NS(=O)(=O)c1cc(C(=O)Nc2ccccc2)ccc1F`, the melting point lay within 219 to 221 °C.

On to `Brc1ccc2c(c1Cc1cccc3cnccc13)OCO2`, for which the melting point lay within 194 to 197 °C.

The molecule `CC(C)(C)C(=O)Oc1ccc(-c2nnn(CCCCC(=O)O)n2)cc1` displayed a melting point of 129 to 131 °C.

`COc1cc(-c2ccc(C#N)cc2)cc(C=O)c1O`: the melting point was 177 to 178 °C.

Consider `c1ccc(Nc2ccc(Cc3ccc(Nc4ccccc4)c4ccccc34)c3ccccc23)cc1`, for which the melting point is 154 to 157 °C.

In the case of `COc1ccc([C@@H]2c3ccccc3C[C@@H]3CC(=O)NCCN32)cc1` (racemic), the melting point was in the range of 196 to 198 °C.

`Cc1ccc(-c2n[nH]c(=O)c(-c3ccccc3)c2-c2ccc(C)cc2)cc1` returned a melting point of 282 to 284 °C.

For `CN(C)C(=O)Oc1ccc(C=O)c(O)c1`, the melting point lay within 58 to 60 °C.

For `CN(CCOc1ccc(N)cc1)c1ccncc1`, the melting point fell in the range of 141 to 142 °C.

With `CCN(C)C(=O)c1ccc(N2CCN(Cc3cnc4c(c3)NC(=O)[C@@H]3CCCN43)CC2)cc1`, the melting point was 91.9 °C.

For the molecule `Cc1ccc(C=Cc2cccc(C#N)n2)cc1`, the melting point was 137 to 138 °C.

`FC(F)c1nc2ccccc2n1-c1nc(Nc2ncccn2)nc(N2CCOCC2)n1`: the melting point fell in the range of 261 to 263 °C.

`COCCOc1ccc2c(c1)OCC21C(=O)Nc2ccccc21` (stereo unspecified) yielded a melting point of 172 to 174 °C.

As for `CNC(NCCSCc1nccc(NC(N)=NCC(F)(F)F)n1)=C(C#N)C#N`, the melting point fell in the range of 173 to 174 °C.

With `CCOC(=O)C1=C(O)C(=O)NCC1`, the melting point was in the range of 142 to 148 °C.

`CCCS(=O)(=O)ON=C(Cl)c1ccc(C)cc1` came in with a melting point of 57.5 to 60.5 °C.

In the case of `CC(=O)OCCC(C(N)=O)C1(C)OCCc2c1[nH]c1ccccc21` (stereo unspecified), the melting point fell in the range of 141 to 143 °C.

In turn, `C[C@@H]1C[C@](C)(O)[C@H](C)N1c1ccc(C#N)c(Cl)c1` gave a melting point of 132 to 133 °C.

Turning to `Cc1ncc2cc(-c3c(Cl)cccc3Cl)c(N)nc2n1`, the melting point was 287 to 289 °C.

Molecule `OC/C=C/c1ccc(OCc2coc(-c3ccccc3)n2)c(F)c1` had a melting point of 134 to 135 °C.

As for `O=C(Nc1nc(/C=C/c2ccc([N+](=O)[O-])cc2)cs1)c1ccccc1`, the melting point is 224 to 225 °C.

In turn, `Cn1cc(C(=O)O)c(=O)c2cc3cc(F)c(N4CCNC(c5ccccc5)C4)c(F)c3nc21` (racemic) returned a melting point of 298 °C.

The molecule `CC(C)c1cc(C(C)C)c(CC#N)c(C(C)C)c1C#N` came in with a melting point of 98 to 101 °C.

As for `CC(=O)OC1CC(CO)OC1n1ccc(=O)[nH]c1=O` (stereo unspecified), the melting point lay within 148 to 149 °C.

Turning to `COc1cc(OC)nc(Oc2cccc(Cl)c2NS(C)(=O)=O)n1`, the melting point was 147 to 148 °C.

On to `CCCCC/C(=C\C=C\C(=O)O)c1ccc(OC)cc1`, for which the melting point was 86.5 to 87.5 °C.

In turn, `CCOC(=O)C(OC(C)=O)c1ccc(-c2ccc(-c3ccccc3)cc2)o1` (stereo unspecified) showed a melting point of 136 to 140 °C.

Consider `CCCC(=O)c1cnc2ccsc2c1Nc1ccccc1C(C)C`, for which the melting point fell in the range of 118 to 120 °C.

As to `NC(CC1c2ccccc2Sc2ccccc21)(C(=O)O)c1ccc(C(=O)O)cc1` (stereo unspecified), the melting point was determined as 251 °C.

For `O=C(O)c1ccccc1C(=O)c1ccc(N2CCCC2)cc1O`, the melting point lay within 190 to 192 °C.

In turn, `COc1ccc(OC)n2nc(N)nc12` yielded a melting point of 223 to 234 °C.

In the case of `CC(=O)OCC1C(O)C2OC(C)(C)OC2C2NC(=O)c3cc4c(cc3C12)OCO4` (stereo unspecified), the melting point is > 200 °C.

For the molecule `Cc1cn(C)c2cc(C(F)(F)F)c(O)cc12`, the melting point came to 256 °C.

The molecule `CC(C)n1nc(-c2c(NCC(N)=O)nc(N)nc2-c2ccccc2)ccc1=O` yielded a melting point of 235 to 238 °C.

Turning to `COc1ccc(C2=NN(CCCCCN3C(=O)c4ccccc4C3=O)C(=O)[C@H]3CC=CC[C@@H]23)cc1OC` (relative stereo), the melting point was in the range of 126 to 129 °C.

In the case of `O=Cc1nccn1Cc1ccccc1[N+](=O)[O-]`, the melting point lay within 141 to 144 °C.

For the molecule `c1ccc(Oc2ccc(OCc3nc(C4CC4)no3)cc2)cc1`, the melting point came to 99 °C.

`Cc1ncc(CN2CCc3cc(-c4ccc(Cl)cc4)ccc3C2)c(N)n1`: the melting point fell in the range of 205 to 208 °C.

For the molecule `Cc1ccc(CN(C(=S)Nc2ccccc2)C2CCCC2)cc1`, the melting point fell in the range of 109 to 111 °C.

`CCOC(=O)CNC(=O)C(CCl)NC(=O)OC(C)(C)C` (stereo unspecified): the melting point fell in the range of 71.5 to 72 °C.

`NC(=O)c1ccnc(-c2csc(N=C(N)N)n2)c1` showed a melting point of 169 to 171 °C.

In turn, `O=C(O)C1CC(=O)N(c2ccccc2)N1` (stereo unspecified) returned a melting point of 197 to 199 °C.

`COC(=O)c1ccc(OCCNC(=O)c2ccc(Cl)cc2)cc1` returned a melting point of 125 to 127 °C.

For the molecule `CC1(C)Oc2ccc([N+](=O)[O-])cc2C(n2ccccc2=O)=C1CNC(=O)C(F)(F)F`, the melting point was found to be 189 °C.
